Measured values published in paper PMC6337391 (Molecules, 2019).
Like-named read-outs stand apart in the source and are kept apart here.

Legend:
[1] = Lipophilicity as RM values by RP-TLC; format: physicochemical; set-up: key: RM = log[(1/Rf) − 1]; settings: methanol/water 70/30, SD < 10%
Summary of the method: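 Reversed-phase TLC on silica gel plates impregnated with 5% (v/v) liquid paraffin, methanol/water 70/30 (v/v) mobile phase, saturated tanks at 24 °C, UV detection. RM = log[(1/Rf) − 1] from five Rf measurements.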

soybean lipoxygenase [2] = biological target: T1, soybean lipoxygenase (Glycine max, UniProt P08170); assay: biochemical; format: biochemical; settings: soybean LOX
T1 sequence (P08170 1-839): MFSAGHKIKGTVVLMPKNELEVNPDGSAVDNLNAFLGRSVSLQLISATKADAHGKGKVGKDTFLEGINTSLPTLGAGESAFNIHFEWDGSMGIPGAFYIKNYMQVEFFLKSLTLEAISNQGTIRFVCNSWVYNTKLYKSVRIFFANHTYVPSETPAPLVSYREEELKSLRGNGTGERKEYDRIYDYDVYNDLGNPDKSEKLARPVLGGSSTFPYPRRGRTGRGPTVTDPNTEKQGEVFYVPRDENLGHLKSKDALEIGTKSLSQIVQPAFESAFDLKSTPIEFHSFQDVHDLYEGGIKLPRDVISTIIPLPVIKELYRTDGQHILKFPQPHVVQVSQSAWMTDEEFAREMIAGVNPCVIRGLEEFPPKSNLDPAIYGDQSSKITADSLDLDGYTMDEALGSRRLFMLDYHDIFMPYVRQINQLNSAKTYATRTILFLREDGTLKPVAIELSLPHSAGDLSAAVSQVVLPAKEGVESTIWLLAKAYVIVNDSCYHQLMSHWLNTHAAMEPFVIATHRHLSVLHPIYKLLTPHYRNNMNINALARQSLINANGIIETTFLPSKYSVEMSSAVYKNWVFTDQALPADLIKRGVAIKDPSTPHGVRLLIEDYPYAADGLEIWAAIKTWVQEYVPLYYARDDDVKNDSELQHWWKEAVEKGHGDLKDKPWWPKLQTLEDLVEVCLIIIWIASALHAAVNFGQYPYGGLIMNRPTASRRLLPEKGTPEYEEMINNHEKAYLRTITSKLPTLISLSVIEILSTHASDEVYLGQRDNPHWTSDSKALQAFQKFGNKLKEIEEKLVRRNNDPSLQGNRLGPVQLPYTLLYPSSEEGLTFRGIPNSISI
Summary of the method: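 Soybean LOX (enzyme solution 1/9 × 10^−4 w/v in saline) incubated at room temperature with sodium linoleate ([…]) in tris buffer pH 9. Compounds added from DMSO stocks. IC50 derived from several concentrations.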

[3] = In vitro lipid peroxidation of liposomes
[4] = Inhibition of linoleic acid lipid peroxidation (AAPH)
Summary of the method: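 Sodium linoleate oxidation was initiated by AAPH in 0.05 M phosphate buffer, pH 7.4, at 37 °C, with test compound present and DMSO as blank. Conjugated diene hydroperoxide formation was followed as the absorbance increase at 234 nm.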

[5] = Reducing activity with the stable radical DPPH
Summary of the method: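 DPPH (final 0.05 mM) in absolute ethanol mixed with an equal volume of compound at 0.05 or 0.1 mM, ethanol as control. Absorbance at 517 nm read at room temperature after 20 and 60 min, expressed as reducing activity RA%.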

[6] = test system: L929 mouse fibroblasts cells; assay: Cytotoxicity, propidium iodide fluorescence method; format: cell-based; settings: 24-h incubation
Summary of the method: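 L929 cells in EMEM with 10% horse serum were allowed to attach for 24 h, then exposed to 1, 10, 20, 50 and 100 μM compound for 24 h at 37 °C. Cells were detached, stained with propidium iodide, and cell death was measured by flow cytometry.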

[7] = ABTS•+ decolorization assay
Summary of the method: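 Compounds (10 mM DMSO stocks, diluted) added to ABTS•+ radical generated by potassium persulfate oxidation of ABTS. Decolorization followed as absorbance at room temperature, with Trolox as standard.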

[8] = test system: L929 mouse fibroblasts cells; set-up: method as in PMID 25798685; settings: 24-h incubation, cited from earlier work
[9] = set-up: method as in PMID 25798685; settings: DPPH, cited from earlier work
[10] = set-up: method as in PMID 25798685; settings: cited from earlier work
Aβ40 = biological target: T2, Aβ40 (Homo sapiens, UniProt P05067); assay: Circular dichroism study of Aβ40 aggregation; settings: 50 µM compound, 50 µM Aβ40 (1:1), PB pH 7.33, 33 °C, 40 days
T2 construct: Amyloid peptide Aβ40 was purchased from AnaSpec Co; purchased AnaSpec Co. (Fremont, CA, USA)
From the text: The pathogenesis of Alzheimer’s disease (AD) is widely associated with the aggregation of β-amyloid peptide (Aβ) either to soluble oligomers or to higher-order polymeric insoluble fibrils. As a result, one of the main therapeutic strategies against AD targets the aggregation process of Aβ, and a great number of small molecules are being investigated for their potential to intervene in the assembly of Aβ and inhibit its neurotoxicity in vitro and in vivo [64]. Circular dichroism (CD) spectroscopy is commonly used to probe the secondary structure of polypeptides and to monitor conformational changes and interactions of polypeptides with small molecules. The typical aggregation process of Aβ produces characteristic CD spectra over time that reflect the conformational changes that occur as the random coil monomers are converted into β-sheet oligomers, and then gradually to larger β-sheet formations that finally produce amyloid fibrils. CD is, therefore, a valuable tool to monitor the aggregation process of Aβ and to study the effect of potential aggregation inhibitors. To further investigate the pleiotropic effects of chalcones against AD, selected compounds from our library, were subjected to CD studies in order to evaluate their potential to interfere with the aggregation process of Aβ40. […] The aggregation spectra of plain Aβ40 show at day 0 the typical random coil peak (negative maximum at 198 nm) the intensity of which gradually decreases as the peptide forms β–sheet structures (negative maximum at 222 nm, day 15) that further aggregate to higher order polymeric fibrils. The precipitation of the insoluble fibrils from solution eventually results in the loss of CD signal (days 30 and 40). […] In view of the above results, chalcone derivatives bearing a three-carbon chain linker, specifically c2, c3, and c4, were subsequently studied in order to assess the effect of further derivatization and the presence of the chalcone moiety in the structure. […] Overall, our CD study identified three new structures capable of interfering with the aggregation process of Aβ, out of which compounds c2 and c4 display additional protective actions against AD and add to the pleiotropic profile of the chalcone derivatives.
Preparation of Aβ stocks and solutions. Amyloid peptide Aβ40 was purchased from AnaSpec Co. (Fremont, CA, USA) (>95% pure). Aβ40 was gently dissolved without vortexing in Type 1 (Milli-Q) water to a final concentration of 100 μM. Solutions of Aβ in phosphate buffer (PB, 10 mM, pH 7.33) were prepared by adding equal volumes of PB to aliquots of the aqueous solution stock to achieve final concentration of 50 µM. The proper amount of the compounds c2, c3, c4, di, dii, and dvi were added to the Aβ solutions to achieve concentration of 50 μM. The secondary structural changes of Aβ were monitored for 40 days by CD. During this period, the amyloid peptide solutions were kept at an incubator at 33 °C under quiescent conditions.
Circular dichroism measurements. CD spectra were recorded on a JASCO J-715 spectropolarimeter (Jasco Co., Tokyo, Japan), at 33 °C in the range of 190–260 nm with a 1 mm path length quartz cuvette. Each spectrum was the average of three scans at a speed of 100 nm·min^−1 and a resolution of 0.5 nm. Three independent experiments were run for each condition and in each case solutions of plain Aβ were run as control (Figure 8). The analysis of the CD data was performed using the OriginPro 9 program.

[11] = set-up: method as in PMID 25798685; settings: RP-TLC, methanol/water 70/30, SD < 10%; cited from earlier work
soybean lipoxygenase [12] = biological target: T1, soybean lipoxygenase; set-up: method as in PMID 25798685; settings: 100 μM; cited from earlier work
[13] = biological target: acetyl-cholinesterase (AChE) (Electrophorus electricus, UniProt O42275); settings: cited from earlier work
[14] = set-up: method as in PMID 25798685; settings: cited from earlier work; remark: listed apart in the source

Chain of acetyl-cholinesterase (AChE) (O42275 24-633): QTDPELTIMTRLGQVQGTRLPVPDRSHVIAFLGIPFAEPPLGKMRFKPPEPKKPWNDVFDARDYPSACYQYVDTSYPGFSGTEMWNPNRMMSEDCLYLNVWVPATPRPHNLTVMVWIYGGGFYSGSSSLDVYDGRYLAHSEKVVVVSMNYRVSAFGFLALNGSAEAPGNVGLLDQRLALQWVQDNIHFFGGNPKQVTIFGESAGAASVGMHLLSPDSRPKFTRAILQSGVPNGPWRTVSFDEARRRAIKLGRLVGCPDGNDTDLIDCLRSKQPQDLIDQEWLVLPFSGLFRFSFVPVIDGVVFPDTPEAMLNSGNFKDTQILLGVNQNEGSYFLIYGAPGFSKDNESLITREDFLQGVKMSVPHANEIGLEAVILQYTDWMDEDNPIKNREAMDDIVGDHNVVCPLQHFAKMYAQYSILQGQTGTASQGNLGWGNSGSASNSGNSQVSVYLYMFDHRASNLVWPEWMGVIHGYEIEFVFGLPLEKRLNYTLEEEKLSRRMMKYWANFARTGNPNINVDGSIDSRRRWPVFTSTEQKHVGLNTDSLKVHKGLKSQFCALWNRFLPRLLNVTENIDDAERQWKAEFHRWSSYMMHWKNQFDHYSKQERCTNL
T2 sequence (P05067 672-711 limits assumed): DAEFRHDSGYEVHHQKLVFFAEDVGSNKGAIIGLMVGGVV

Row | Compound | RM [1] | % LOX Inhb. @ 100 μM (soybean lipoxygenase [2]) [%] | % Inhb. of Liposomes LP @ 100 μM [3] [%] | AAPH% @ 100 μM (anti-lipid peroxidation) [4] [%] | RA% 100 μM 20 min [5] | RA% 100 μM 60 min [5] | ABTS•+ Inhb. % @ 100 μM [7] [%] | 1 μM Average (% pi) ± σ [8] [%] | 10 μM Average (% pi) ± σ [8] [%] | 20 μM Average (% pi) ± σ [8] [%] | 50 μM Average (% pi) ± σ [8] [%] | 100 μM Average (% pi) ± σ [8] [%] | RA% 100 μM 20 min [9] | RA% 100 μM 60 min [9] | AAPH% @ 100 μM (anti-lipid peroxidation) [10] [%] | RM [11] | % LOX Inhb. @ 100 μM (soybean lipoxygenase [12]) | % AChE Inhb. @ 100 μM [13] [%] | ABTS•+ Inhb. % @ 100 μM [14] | further results
1 | Cc1ccc(/C=C/C(=O)c2ccc(OCCCOc3ccc(C(=O)/C=C/c4ccc(C)o4)cc3)cc2)o1 [c12, (2E,2′E)-1,1′-((propane-1,3-diylbis(oxy))bis(4,1-phenylene))bis(3-(5-methylfuran-2-yl)prop-2-en-1-one)] | −0.96 | 52 | 74 | 68 | No | no | 17 | – | – | – | – | – | – | – | – | – | – | – | – | IC50 (soybean lipoxygenase [2]; read-out: LOX IC50): 96 µM; 1 μM Average (% pi) ± σ ([6]; 1 μM): 13.22 ± 0.64%; 10 μM Average (% pi) ± σ ([6]; 10 μM): 31.31 ± 4.84%; 20 μM Average (% pi) ± σ ([6]; 20 μM): 53.79 ± 16.95%; 50 μM Average (% pi) ± σ ([6]; 50 μM): 84.03 ± 2.25%; 100 μM Average (% pi) ± σ ([6]; 100 μM): 84.03 ± 2.25%
2 | CC(=O)c1ccc(OCCCOc2ccc(C(C)=O)cc2)cc1 [dii, 1,1′-((propane-1,3-diylbis-(oxy))bis(4,1-phenylene))diethanone] | – | – | – | – | – | – | – | 9 ± 4.5 | 8.5 ± 4.24 | 13 ± 4.5 | 42 ± 3.5 | 42 ± 3.5 | No | no | 20 | −0.23 | no | 20 | No | effect on the aggregation process of Aβ40 (CD spectra) (Aβ40): modified the aggregation course of Aβ40 by stabilizing a β-sheet structure that did not seem to evolve further
3 | CN(C)c1ccc(/C=C/C=C/C(=O)c2ccc(OCCCCCOc3ccc(C(=O)/C=C/C=C/c4ccc(N(C)C)cc4)cc3)cc2)cc1 [eiv, (2E,2′E,4E,4′E)-1,1′-((pentane-1,5-diylbis(oxy))bis(4,1-phenylene))bis(5-(4-(dimethylamino)phenyl)penta-2,4-dien-1-one)] | 0.13 | 23 | 77 | 72 | No | no | 73 | – | – | – | – | – | – | – | – | – | – | – | – | –
4 | O=C(/C=C/c1ccc(OCc2ccc(Br)cc2)cc1)c1ccc(OCCCOc2ccc(C(=O)/C=C/c3ccc(OCc4ccc(Br)cc4)cc3)cc2)cc1 [c1, (2E,2′E)-1,1′-((propane-1,3-diylbis(oxy))bis(4,1-phenylene))bis(3-(4-((4-bromobenzyl)oxy)phenyl)prop-2-en-1-one)] | – | – | – | – | – | – | – | 38.5 ± 6.9 | 49.5 ± 7.8 | 53.5 ± 0.71 | 74 ± 5.6 | 74 ± 5.6 | 36% | 55% | 42 | −0.68 | 41% | 23 | no | –
